For one data set, the target named is T1, recombinant human NQO2 (Homo sapiens, UniProt P16083).
T1 sequence (P16083 1-231): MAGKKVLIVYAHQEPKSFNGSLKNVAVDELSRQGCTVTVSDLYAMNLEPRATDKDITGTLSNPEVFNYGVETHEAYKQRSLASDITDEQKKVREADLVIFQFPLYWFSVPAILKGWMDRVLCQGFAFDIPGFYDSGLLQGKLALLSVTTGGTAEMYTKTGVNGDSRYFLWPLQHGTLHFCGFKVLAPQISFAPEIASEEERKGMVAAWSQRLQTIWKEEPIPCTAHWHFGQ
Description: NQO2 enzyme inhibition assay (DCPIP substrate, NRH or EPR co-substrate). Format: biochemical. On the procedure:
In this assay, dichlorophenolindophenol (DCPIP) was used as a substrate for NQO2. NRH (SI or EP0152R) was used as the co-substrate for the enzyme.
The NQO2 enzyme assay was carried out using a […] GO spectrophotometer by measuring the absorbance of DCPIP at 600 nm. NRH [31] or EPR were used as co-substrates. The experiment was performed using a 96-well plate with a […] final volume using phosphate buffer (50 mM, pH 7.4). The final concentrations were DCPIP 40 µM and NRH or EPR 200 µM. The final enzyme concentration was 100 ng. The assay was performed at 37 °C and initiated through the addition of NQO2. The initial rates of the enzyme reactions were calculated from the curve by taking the initial slopes of the reactions using the formula (ΔAb/ΔTime). The assay of inhibitors was carried out using the same assay conditions. […] Each experiment was performed in triplicate. Rates were converted to the percentage of enzyme activity, and IC50 values were calculated using GraphPad Prism 7.03 software using the non-linear regression function. IC50 values were determined as a 50% decrease in NQO2 activity.

The mark [1] stands for this setting: DCPIP substrate, NRH co-substrate, read-out: IC50 for inhibition of NQO2.
Setting [2] is: inhibition of NQO2, DCPIP 40 µM, NRH or EPR 200 µM, phosphate buffer pH 7.4, 37 °C, triplicate, read-out: IC50 (µM) ± SD.

SMILES strings stand for the structures. Like-named read-outs stand apart in the source and are kept apart here.

Take `COc1ccc(OC)c(-c2nc3ccc(OC)cc3s2)c1` [Compound 24, 2-(2,5-Dimethoxyphenyl)-6-methoxybenzo[d]thiazole]: the figures for the IC50 on recombinant human NQO2 (setting [1]) and on recombinant human NQO2 (setting [2]) were 0.846 µM and 0.846 ± 0.02 µM, respectively.

In the case of `COc1ccc(-c2nc3ccc(C#N)cc3s2)cc1OC` [Compound 36, 2-(3,4-Dimethoxyphenyl)benzo[d]thiazole-6-carbonitrile], the IC50 at recombinant human NQO2 (setting [2]) is > 100 µM.

In the case of `COc1ccc(-c2nc3ccc(Br)cc3s2)cc1OC` [Compound 33, 6-Bromo-2-(3,4-dimethoxyphenyl)benzo[d]thiazole], the melting point was in the range of 165 to 168 °C. Moreover, on recombinant human NQO2 (setting [1]), the IC50 was determined as 9.09 µM. In addition, the IC50 at recombinant human NQO2 (setting [2]) came out at 9.09 ± 0.04 µM.

`COc1cc(OC)cc(-c2nc3ccc(NC(=O)c4ccccc4)cc3s2)c1` [Compound 13, N-(2-(3,5-Dimethoxyphenyl)benzo[d]thiazol-6-yl)benzamide] displayed a melting point of 138 to 140 °C. In addition, at recombinant human NQO2, the “inhibition of NQO2 enzymatic activity, in words” value (“inhibition” below) is “further loss of activity”. Moreover, the IC50 at recombinant human NQO2 (setting [2]) was found to be 8.44 ± 0.03 µM.

As for `COc1cc(-c2nc3ccc(N)cc3s2)cc(OC)c1OC` [Compound 48, 2-(3,4,5-Trimethoxyphenyl)benzo[d]thiazol-6-amine], the melting point fell in the range of 212 to 215 °C. Moreover, at recombinant human NQO2 (setting [1]), the IC50 came to 0.079 µM. Besides, the IC50 on recombinant human NQO2 (setting [2]) came to 0.079 ± 0.017 µM.

With `COc1cc(-c2nc3ccc(C(F)(F)F)cc3s2)cc(OC)c1OC` [Compound 42, 6-(Trifluoromethyl)-2-(3,4,5-trimethoxyphenyl)benzo[d]thiazole], the IC50 at recombinant human NQO2 (setting [1]) is 18.4 µM; at recombinant human NQO2 (setting [2]), 18.36 ± 0.03 µM.

In the case of `COc1ccc(-c2nc3ccc(F)cc3s2)cc1OC` [Compound 37, 2-(3,4-Dimethoxyphenyl)-6-fluorobenzo[d]thiazole], the IC50 at recombinant human NQO2 (setting [1]) is 5.93 µM; on recombinant human NQO2 (setting [2]), 5.93 ± 0.05 µM.

Consider `COc1cc(OC)cc(-c2nc3ccc(C#N)cc3s2)c1` [Compound 7, 2-(3,5-Dimethoxyphenyl)benzo[d]thiazole-6-carbonitrile], for which the melting point lay within 222 to 224 °C. Moreover, the IC50 at recombinant human NQO2 (setting [2]) is > 100 µM.

With `Oc1ccc2nc(-c3cc(O)c(O)c(O)c3)sc2c1` [Compound 52, 6-Hydroxy-2-(3,4,5-trihydroxyphenyl)benzo[d]thiazole], the melting point was in the range of 240 to 242 °C. For the same molecule, the IC50 at recombinant human NQO2 (setting [2]) worked out at 0.2 ± 0.01 µM.

For the molecule `Oc1cc(O)cc(-c2nc3ccc(O)cc3s2)c1` [Compound 15, 6-Hydroxy-2-(3,5-dihydroxyphenyl)benzo[d]thiazole], the results for the IC50 on recombinant human NQO2 (setting [1]) and at recombinant human NQO2 (setting [2]) were 0.025 µM and 0.025 ± 0.003 µM, respectively.

Turning to `COc1ccc(-c2nc3ccc(Cl)cc3s2)c(OC)c1` [Compound 19, 6-Chloro-2-(2,4-dimethoxyphenyl)benzo[d]thiazole], the melting point is 170 to 171 °C. For the same molecule, the concentration for half-maximal inhibition (IC50) on recombinant human NQO2 (setting [1]) worked out at 33.5 µM. The IC50 at recombinant human NQO2 (setting [2]) turned out to be 33.55 ± 0.02 µM.

Turning to `COc1cc(-c2nc3ccc(I)cc3s2)cc(OC)c1OC` [Compound 46, 6-Iodo-2-(3,4,5-trimethoxyphenyl)benzo[d]thiazole], on recombinant human NQO2 (setting [2]), the IC50 worked out at 0.106 ± 0.004 µM.

Take `COc1ccc(OC)c(-c2nc3ccc(Cl)cc3s2)c1` [Compound 27, 6-Chloro-2-(2,5-dimethoxyphenyl)benzo[d]thiazole]: the melting point was in the range of 220 to 222 °C. For the same molecule, the IC50 on recombinant human NQO2 (setting [1]) was determined as 1.18 µM. Moreover, the half-inhibitory concentration (IC50) at recombinant human NQO2 (setting [2]) worked out at 1.18 ± 0.002 µM.

Take `COc1ccc(-c2nc3ccc(I)cc3s2)cc1OC` [Compound 38, 2-(3,4-Dimethoxyphenyl)-6-iodobenzo[d]thiazole]: the IC50 on recombinant human NQO2 (setting [1]) was 22.9 µM; on recombinant human NQO2 (setting [2]), 22.94 ± 0.02 µM.

For the molecule `COc1ccc(-c2nc3ccc(C(F)(F)F)cc3s2)cc1OC` [Compound 34, 2-(3,4-Dimethoxyphenyl)-6-(trifluoromethyl)benzo[d]thiazole], at recombinant human NQO2 (setting [2]), the IC50 is > 100 µM.

Molecule `COc1ccc(-c2nc3ccc(F)cc3s2)c(OC)c1` [Compound 21, 2-(2,4-Dimethoxyphenyl)-6-fluorobenzo[d]thiazole] had a melting point of 157 to 158 °C. For the same molecule, the IC50 at recombinant human NQO2 (setting [2]) turned out to be 3.51 ± 0.08 µM.

Molecule `COc1ccc(-c2nc3ccc([N+](=O)[O-])cc3s2)cc1OC` [Compound 39, 2-(3,4-Dimethoxyphenyl)-6-nitrobenzo[d]thiazole] displayed a melting point of 221 to 222 °C. The IC50 on recombinant human NQO2 (setting [2]) turned out to be 63.28 ± 0.02 µM.

As to `COc1cc(-c2nc3ccc(C#N)cc3s2)cc(OC)c1OC` [Compound 44, 2-(3,4,5-Trimethoxyphenyl)benzo[d]thiazole-6-carbonitrile], the melting point fell in the range of 228 to 230 °C. Moreover, at recombinant human NQO2 (setting [1]), the IC50 was 13.3 µM. Besides, the IC50 at recombinant human NQO2 (setting [2]) turned out to be 13.28 ± 0.02 µM.

Turning to `COc1cc(OC)cc(-c2nc3ccc(N)cc3s2)c1` [Compound 11, 2-(3,5-Dimethoxyphenyl)benzo[d]thiazol-6-amine], the values for the IC50 on recombinant human NQO2 (setting [1]) and at recombinant human NQO2 (setting [2]) were 0.863 µM and 0.863 ± 0.07 µM, respectively.

In turn, `COc1cc(OC)cc(C(=O)Nc2ccc3nc(-c4cc(OC)cc(OC)c4)sc3c2)c1` [Compound 14, N-(2-(3,5-Dimethoxyphenyl)benzo[d]thiazol-6-yl)-3,5-dimethoxybenzamide] gave a melting point of 159 to 162 °C. Besides, the “inhibition” value on recombinant human NQO2 is reported as “further loss of activity”. Moreover, the IC50 at recombinant human NQO2 (setting [2]) turned out to be 1.36 ± 0.06 µM.

`COc1ccc(OC)c(-c2nc3ccc(C#N)cc3s2)c1` [Compound 28, 2-(2,5-Dimethoxyphenyl)benzo[d]thiazole-6-carbonitrile] came in with a melting point of 182 to 184 °C. For the same molecule, the IC50 at recombinant human NQO2 (setting [2]) is > 100 µM.

In turn, `COc1cc(-c2nc3ccc([N+](=O)[O-])cc3s2)cc(OC)c1OC` [Compound 47, 6-Nitro-2-(3,4,5-trimethoxyphenyl)benzo[d]thiazole] showed a melting point of 200 to 201 °C. Also, at recombinant human NQO2 (setting [2]), the IC50 was 0.754 ± 0.008 µM.

`COc1ccc(-c2nc3ccc(Br)cc3s2)c(OC)c1` [Compound 17, 6-Bromo-2-(2,4-dimethoxyphenyl)benzo[d]thiazole] returned a melting point of 148 to 149 °C. For the same molecule, the IC50 on recombinant human NQO2 (setting [1]) was 56.9 µM. Besides, the IC50 on recombinant human NQO2 (setting [2]) was 56.9 ± 0.02 µM.

As to `COc1cc(OC)cc(-c2nc3ccc(C(F)(F)F)cc3s2)c1` [Compound 5, 2-(3,5-Dimethoxyphenyl)-6-(trifluoromethyl)benzo[d]thiazole], the IC50 is 0.123 µM on recombinant human NQO2 (setting [1]) and 0.123 ± 0.029 µM at recombinant human NQO2 (setting [2]).

With `COc1cc(-c2nc3ccc(Br)cc3s2)cc(OC)c1OC` [Compound 41, 6-Bromo-2-(3,4,5-trimethoxyphenyl)benzo[d]thiazole], the melting point was 171 to 172 °C. The IC50 on recombinant human NQO2 (setting [2]) turned out to be 0.193 ± 0.003 µM.

On to `COc1ccc(OC)c(-c2nc3ccc(Br)cc3s2)c1` [Compound 25, 6-Bromo-2-(2,5-dimethoxyphenyl)benzo[d]thiazole], for which the melting point was in the range of 135 to 137 °C. At recombinant human NQO2 (setting [2]), the IC50 was determined as 6.71 ± 0.02 µM.

Turning to `COc1ccc(-c2nc3ccc(C(F)(F)F)cc3s2)c(OC)c1` [Compound 18, 2-(2,4-Dimethoxyphenyl)-6-(trifluoromethyl)benzo[d]thiazole], the IC50 at recombinant human NQO2 (setting [2]) was found to be 4.52 ± 0.04 µM.

Consider `Fc1ccc(-c2nc3ccc(F)cc3s2)cc1` [Compound 56, 6-Fluoro-2-(4-fluorophenyl)benzo[d]thiazole], for which the IC50 on recombinant human NQO2 (setting [1]) and at recombinant human NQO2 (setting [2]) was > 100 µM in each case.

The molecule `COc1ccc(-c2nc3ccc(OC)cc3s2)c(OC)c1` [Compound 16, 2-(2,4-Dimethoxyphenyl)-6-methoxybenzo[d]thiazole] had a melting point of 150 to 151 °C. Moreover, the IC50 at recombinant human NQO2 (setting [2]) stood at 5.86 ± 0.07 µM.

Consider `COc1cc(OC)cc(-c2nc3ccc(Cl)cc3s2)c1` [Compound 6, 6-Chloro-2-(3,5-dimethoxyphenyl)benzo[d]thiazole], for which the melting point was 150 to 151 °C. Besides, the IC50 on recombinant human NQO2 (setting [2]) stood at 82.93 ± 0.04 µM.

Consider `COc1ccc2nc(-c3cc(OC)c(OC)c(OC)c3)sc2c1` [Compound 40, 6-Methoxy-2-(3,4,5-trimethoxyphenyl)benzo[d]thiazole], for which the IC50 turned out to be 0.051 µM on recombinant human NQO2 (setting [1]) and 0.051 ± 0.02 µM on recombinant human NQO2 (setting [2]).

Regarding `COc1ccc(OC)c(-c2nc3ccc(C(F)(F)F)cc3s2)c1` [Compound 26, 2-(2,5-Dimethoxyphenyl)-6-(trifluoromethyl)benzo[d]thiazole], the IC50 was 2.77 µM on recombinant human NQO2 (setting [1]) and 2.77 ± 0.01 µM at recombinant human NQO2 (setting [2]).

Consider `Fc1cc(F)cc(-c2nc3ccc(F)cc3s2)c1` [Compound 58, 2-(3,5-Difluorophenyl)-6-fluorobenzo[d]thiazole], for which the “inhibition” value on recombinant human NQO2 was “loss of inhibition of NQO2 activity”. Moreover, the IC50 at recombinant human NQO2 (setting [2]) is > 100 µM.

Turning to `COc1ccc(-c2nc3ccc(Cl)cc3s2)cc1OC` [Compound 35, 6-Chloro-2-(3,4-dimethoxyphenyl)benzo[d]thiazole], the IC50 at recombinant human NQO2 (setting [1]) turned out to be 91.7 µM; on recombinant human NQO2 (setting [2]), 91.67 ± 0.08 µM.

For the molecule `COc1ccc2nc(-c3ccc(OC)c(OC)c3)sc2c1` [Compound 32, 2-(3,4-Dimethoxyphenyl)-6-methoxybenzo[d]thiazole], the IC50 at recombinant human NQO2 (setting [1]) stood at 1.27 µM; at recombinant human NQO2 (setting [2]), 1.27 ± 0.03 µM. Further, the “reduction in potency relative to compound 40” value at recombinant human NQO2 (removal of the 4-OMe or the 5-OMe from 40) turned out to be 20 fold.

On to `COc1ccc2nc(-c3cc(F)cc(F)c3)sc2c1` [Compound 57, 2-(3,5-Difluorophenyl)-6-methoxybenzo[d]thiazole], for which the IC50 on recombinant human NQO2 (setting [1]) came to 12 µM; on recombinant human NQO2 (setting [2]) it was 11.78 ± 0.02 µM.

For the origin of these results see publication PMC11593696, “Discovery of Potent Benzothiazole Inhibitors of Oxidoreductase NQO2, a Target for Inflammation and Cancer” (International Journal of Molecular Sciences, 2024).
